Measured values taken from patent EP0527889B1, “QUINOLIZINONE TYPE COMPOUNDS” (priority 1990, dated 1991).
In brackets after ≈: the same amount, converted by molar mass. Structures can show the parent of a compound that is named as a salt.

Columns and labels:
[1] = system: Staphylococcus aureus NCTC 10649; experiment: In vivo antibacterial activity in mice (protection from lethal intraperitoneal infection); conditions: NCTC10649, 144 h, S. aureus, CF-1 female mice infected intraperitoneally with 100 times the LD50, treated at 1 and 5 hr after infection, cumulative mortalities on the sixth day
Experimental: The in vivo antibacterial activity of the compounds of the present invention was determined as follows: Aqueous solutions of the test compounds were prepared by dissolving the compound in distilled water, except for the compounds of examples 169 and 170 which were dissolved in a solution of 2% DMSO in distilled water.
After 18 hr incubation, a culture of Staphylococcus aureus NCTC 10649 was serially diluted by using 10-fold dilutions in 5% (w/v) hog gastric mucin. Cultures (0.5 mL) in a dilution from 10^-1 to 10^-8 were injected intraperitoneally into CF-1 female mice weighing approximately 20g. The LD50 (median lethal dose) for the test organism was calculated from the cumulative mortalities on the sixth day by the using the Reed and Muench procedure (Reed, L.J., and H. Muench, Amer. J. Hygiene, 27, 493 (1938)).
The above 18 hr culture was diluted in 5% (w/v) hog gastric mucin to obtain 100 times the LD50, and 0.5 mL was injected intraperitoneally into mice. The mice were treated subcutaneously (sc) or orally (po) with a specific amount of the test compound divided equally to be administered at 1 and 5 hr after infection. A group of 10 animals each for at least three dose levels was thus treated, and the deaths were recorded daily for 6 days. Ten mice were left untreated as infection control. ED50 values were calculated from the cumulative mortalities on the sixth day after infection by using the trimmed version of the Logit method ( Hamilton, M.A., R.C. Russo, and R.V. Thurston, Environ. Sci. Technol. 11, 714 (1977)).

[2] = system: Staphylococcus epidermidis 3519; experiment: In vitro antibacterial activity, MIC by agar dilution; format: cell-based; conditions: BHI agar, 35-37°C, 20-24 hours, unit assumed
Experimental: (§1) Each plate was inoculated with 1:100 (or 1:10 for slow growing strains, primarily Micrococcus and Streptococcus) dilutions of up to 32 different microorganisms, using a Steers replicator block calibrated to deliver approximately 10^4 colony forming units (CFUs). The inoculated plates were incubated at from about 35°C to about 37°C for approximately 20-24 hours. In addition, a control plate using BHI agar containing no test compound was prepared and incubated at the beginning and at the end of each test. Ciprofloxacin was used as the control antibiotic.
(§2) The MIC was defined as the lowest concentration of test compound yielding no growth (a slight haze or sparsely isolated colonies at the inoculum spot) as compared to the growth control containing no test compound.

Escherichia coli DC-2 = experiment: as above; format: cell-based; conditions: BHI agar, 35-37°C, 20-24 hours, unit assumed
Experimental: as §1, §2

[3] = system: Pseudomonas aeruginosa A5007; experiment: as above; format: cell-based; conditions: BHI agar, 35-37°C, 20-24 hours, unit assumed
Experimental: as §1, §2

[4] = system: Staphylococcus aureus NCTC 10649; experiment: as above; format: cell-based; conditions: BHI agar, 35-37°C, 20-24 hours, unit assumed
Experimental: as §1, §2

[5] = system: Micrococcus luteus ATCC 4698; experiment: as above; format: cell-based; conditions: BHI agar, 35-37°C, 20-24 hours, unit assumed
Experimental: as §1, §2

[6] = system: Streptococcus pyrogenes CONST; experiment: as above; format: cell-based; conditions: BHI agar, 35-37°C, 20-24 hours, unit assumed
Experimental: as §1, §2

[7] = system: Pseudomonas aeruginosa BMH10; experiment: as above; format: cell-based; conditions: BHI agar, 35-37°C, 20-24 hours, unit assumed
Experimental: as §1, §2

[8] = system: Micrococcus luteus ATCC 9341; experiment: as above; format: cell-based; conditions: BHI agar, 35-37°C, 20-24 hours, unit assumed
Experimental: as §1, §2

[9] = system: Acinetobacter calcoaceticus CMX 669; experiment: as above; format: cell-based; conditions: BHI agar, 35-37°C, 20-24 hours, unit assumed
Experimental: as §1, §2

[10] = system: Staphylococcus aureus CMX 553; experiment: as above; format: cell-based; conditions: BHI agar, 35-37°C, 20-24 hours, unit assumed
Experimental: as §1, §2

[11] = system: Streptococcus bovis A5169; experiment: as above; format: cell-based; conditions: BHI agar, 35-37°C, 20-24 hours, unit assumed
Experimental: as §1, §2

[12] = system: Pseudomonas aeruginosa 5263; experiment: as above; format: cell-based; conditions: BHI agar, 35-37°C, 20-24 hours, unit assumed
Experimental: as §1, §2

[13] = system: Staphylococcus aureus 1775; experiment: as above; format: cell-based; conditions: BHI agar, 35-37°C, 20-24 hours, unit assumed
Experimental: as §1, §2

[14] = system: Staphylococcus aureus A-5278; experiment: as above; format: cell-based; conditions: BHI agar, 35-37°C, 20-24 hours, unit assumed
Experimental: as §1, §2

[15] = system: Streptococcus agalactaciae CMX 508; experiment: as above; format: cell-based; conditions: BHI agar, 35-37°C, 20-24 hours, unit assumed
Experimental: as §1, §2

Escherichia coli JUHL = experiment: as above; format: cell-based; conditions: BHI agar, 35-37°C, 20-24 hours, unit assumed
Experimental: as §1, §2

[16] = system: Enterococcus faecium ATCC 8043; experiment: as above; format: cell-based; conditions: BHI agar, 35-37°C, 20-24 hours, unit assumed
Experimental: as §1, §2

[17] = system: Pseudomonas aeruginosa 2862; experiment: as above; format: cell-based; conditions: BHI agar, 35-37°C, 20-24 hours, unit assumed
Experimental: as §1, §2

[18] = system: Staphylococcus aureus A5177; experiment: as above; format: cell-based; conditions: BHI agar, 35-37°C, 20-24 hours, unit assumed
Experimental: as §1, §2

[19] = system: Staphylococcus aureus ATCC 6538P; experiment: as above; format: cell-based; conditions: BHI agar, 35-37°C, 20-24 hours, unit assumed
Experimental: as §1, §2

[20] = system: Streptococcus pyrogenes EES61; experiment: as above; format: cell-based; conditions: BHI agar, 35-37°C, 20-24 hours, unit assumed
Experimental: as §1, §2

Escherichia coli H560 = experiment: as above; format: cell-based; conditions: BHI agar, 35-37°C, 20-24 hours, unit assumed
Experimental: as §1, §2

[21] = system: Streptococcus pyrogenes 2548 INDUC; experiment: as above; format: cell-based; conditions: BHI agar, 35-37°C, 20-24 hours, unit assumed
Experimental: as §1, §2

[22] = system: Pseudomonas aeruginosa K799/WT; experiment: as above; format: cell-based; conditions: BHI agar, 35-37°C, 20-24 hours, unit assumed
Experimental: as §1, §2

[23] = system: Pseudomonas aeruginosa K799/61; experiment: as above; format: cell-based; conditions: BHI agar, 35-37°C, 20-24 hours, unit assumed
Experimental: as §1, §2

[24] = system: Providencia stuartii CMX 640; experiment: as above; format: cell-based; conditions: BHI agar, 35-37°C, 20-24 hours, unit assumed
Experimental: as §1, §2

Pseudomonas cepacia 296I = experiment: as above; format: cell-based; conditions: BHI agar, 35-37°C, 20-24 hours, unit assumed
Experimental: as §1, §2

Escherichia coli KNK 437 = experiment: as above; format: cell-based; conditions: BHI agar, 35-37°C, 20-24 hours, unit assumed
Experimental: as §1, §2

[25] = system: Enterobacter aerogenes ATCC 13048; experiment: as above; format: cell-based; conditions: BHI agar, 35-37°C, 20-24 hours, unit assumed
Experimental: as §1, §2

[26] = system: Staphylococcus aureus 642A; experiment: as above; format: cell-based; conditions: BHI agar, 35-37°C, 20-24 hours, unit assumed
Experimental: as §1, §2

[27] = system: Klebsiella pneumoniae ATCC 8045; experiment: as above; format: cell-based; conditions: BHI agar, 35-37°C, 20-24 hours, unit assumed
Experimental: as §1, §2

Escherichia coli SS = experiment: as above; format: cell-based; conditions: BHI agar, 35-37°C, 20-24 hours, unit assumed
Experimental: as §1, §2

Compound	MIC values [2]	MIC values (Escherichia coli DC-2)	MIC values [3]	MIC values [4]	MIC values [5]	MIC values [6]	MIC values [7]	MIC values [8]	MIC values [9]	MIC values [10]	MIC values [11]	MIC values [12]	MIC values [13]	MIC values [14]	MIC values [15]	MIC values (Escherichia coli JUHL)	MIC values [16]	MIC values [17]	MIC values [18]	MIC values [19]	other results
CC(=O)N[C@H]1C[C@H](C)N(c2nc3c(-c4ccc(F)cc4F)cc(C(=O)O)c(=O)n3cc2F)C1 [Example 169, 2-((2S,4S)-4-Acetamido-2-methylpyrrolidin-1-yl)-9-(2,4-difluorophenyl)-3-fluoro-6H-6-oxopyrido[1,2-a]pyrimidine-7-carboxylic acid]	0.39 µg/mL (≈ 0.847 µM)	12.5 µg/mL (≈ 27.1 µM)	3.1 µg/mL (≈ 6.73 µM)	0.2 µg/mL (≈ 0.434 µM)	0.39 µg/mL (≈ 0.847 µM)	0.39 µg/mL (≈ 0.847 µM)	3.1 µg/mL (≈ 6.73 µM)	3.1 µg/mL (≈ 6.73 µM)	3.1 µg/mL (≈ 6.73 µM)	0.39 µg/mL (≈ 0.847 µM)	3.1 µg/mL (≈ 6.73 µM)	> 100 µg/mL	25 µg/mL (≈ 54.3 µM)	0.2 µg/mL (≈ 0.434 µM)	0.78 µg/mL (≈ 1.69 µM)	0.78 µg/mL (≈ 1.69 µM)	1.56 µg/mL (≈ 3.39 µM)	> 100 µg/mL	0.2 µg/mL (≈ 0.434 µM)	0.1 µg/mL (≈ 0.217 µM)	ED50 ([1]; po): > 48 mg/kg; ED50 ([1]; sc): 7.5 mg/kg; MIC values [20]: 0.78 µg/mL (≈ 1.69 µM); MIC values (Escherichia coli H560): 0.78 µg/mL (≈ 1.69 µM); MIC values [21]: 0.39 µg/mL (≈ 0.847 µM); MIC values [22]: 3.1 µg/mL (≈ 6.73 µM); MIC values [23]: 0.39 µg/mL (≈ 0.847 µM); MIC values [24]: 25 µg/mL (≈ 54.3 µM); MIC values (Pseudomonas cepacia 296I): 25 µg/mL (≈ 54.3 µM); MIC values (Escherichia coli KNK 437): 6.2 µg/mL (≈ 13.5 µM); MIC values [25]: 3.1 µg/mL (≈ 6.73 µM); MIC values [26]: 0.39 µg/mL (≈ 0.847 µM); MIC values [27]: 0.39 µg/mL (≈ 0.847 µM); MIC values (Escherichia coli SS): 0.005 µg/mL (≈ 0.0109 µM)
NC1CCN(c2nc3c(-c4c(F)c(F)c(F)c(F)c4F)cc(C(=O)O)c(=O)n3cc2F)C1 (centres unmarked) [Example 172, 2-(3-Aminopyrrolidin-1-yl)-3-fluoro-9-(2,3,4,5,6-pentafluorophenyl)-6H-6-oxopyrido[1,2-a]pyrimidine-7-carboxylic acid hydrochloride salt]	50 µg/mL	> 100 µg/mL	50 µg/mL	50 µg/mL	> 100 µg/mL	> 100 µg/mL	50 µg/mL	> 100 µg/mL	25 µg/mL	> 100 µg/mL	> 100 µg/mL	> 100 µg/mL	> 100 µg/mL	50 µg/mL	> 100 µg/mL	6.2 µg/mL	> 100 µg/mL	> 100 µg/mL	100 µg/mL	50 µg/mL	MIC values [20]: > 100 µg/mL; MIC values (Escherichia coli H560): 6.2 µg/mL; MIC values [21]: > 100 µg/mL; MIC values [22]: 100 µg/mL; MIC values [23]: 6.2 µg/mL; MIC values [24]: > 100 µg/mL; MIC values (Pseudomonas cepacia 296I): > 100 µg/mL; MIC values (Escherichia coli KNK 437): > 100 µg/mL; MIC values [25]: 6.2 µg/mL; MIC values [26]: 100 µg/mL; MIC values [27]: 3.1 µg/mL; MIC values (Escherichia coli SS): 0.39 µg/mL
C[C@H](N)C(=O)N[C@@H](C)C(=O)N[C@H]1C[C@H](C)N(c2nc3c(-c4ccc(F)cc4F)cc(C(=O)O)c(=O)n3cc2F)C1 [Example 173, 2-((2S, 4S)-4-(N-(S)-Alanyl-(S)-alanyl)amino-2-methylpyrrolidin-1-yl)-9-(2,4-difluorophenyl)-3-fluoro-6H-6-oxopyrido[1,2-a]pyrimidine-7-carboxylic acid hydrochloride]	6.2 µg/mL	> 100 µg/mL	50 µg/mL	1.56 µg/mL	100 µg/mL	12.5 µg/mL	50 µg/mL	> 100 µg/mL	25 µg/mL	12.5 µg/mL	25 µg/mL	> 100 µg/mL	> 100 µg/mL	6.2 µg/mL	12.5 µg/mL	6.2 µg/mL	50 µg/mL	> 100 µg/mL	6.2 µg/mL	1.56 µg/mL	MIC values [20]: 12.5 µg/mL; MIC values (Escherichia coli H560): 3.1 µg/mL; MIC values [21]: 6.2 µg/mL; MIC values [22]: 100 µg/mL; MIC values [23]: 3.1 µg/mL; MIC values [24]: > 100 µg/mL; MIC values (Pseudomonas cepacia 296I): > 100 µg/mL; MIC values (Escherichia coli KNK 437): 100 µg/mL; MIC values [25]: 25 µg/mL; MIC values [26]: 12.5 µg/mL; MIC values [27]: 3.1 µg/mL; MIC values (Escherichia coli SS): 0.1 µg/mL
